# Laboratory results: patent US7407980B2, “Imidazolinylmethyl aralkylsulfonamides” (Roche Palo Alto LLC, priority 2002, dated 2008)
# Biological target: T1, alpha 1A adrenoceptors (Homo sapiens, UniProt P35348)
# T1 construct: expressed in transfected cells; host or cells: CHO-K1 (clone 13)
# T1 sequence (P35348 1-466): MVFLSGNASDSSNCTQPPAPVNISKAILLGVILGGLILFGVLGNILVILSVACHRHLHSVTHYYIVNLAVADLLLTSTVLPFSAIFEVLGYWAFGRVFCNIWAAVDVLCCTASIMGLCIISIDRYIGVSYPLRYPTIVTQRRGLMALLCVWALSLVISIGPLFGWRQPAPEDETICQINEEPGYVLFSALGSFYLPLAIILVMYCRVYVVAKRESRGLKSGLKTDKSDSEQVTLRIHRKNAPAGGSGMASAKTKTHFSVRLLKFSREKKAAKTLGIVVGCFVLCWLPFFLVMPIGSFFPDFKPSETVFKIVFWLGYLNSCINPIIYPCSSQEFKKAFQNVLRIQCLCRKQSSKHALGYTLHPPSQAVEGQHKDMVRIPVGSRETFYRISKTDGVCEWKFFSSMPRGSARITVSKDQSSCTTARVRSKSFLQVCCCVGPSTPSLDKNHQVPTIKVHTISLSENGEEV
# Assay: Functional assay: fluorescent dye (Fluo-3, FLIPR) determination of intracellular calcium in CHO-K1 cells expressing alpha 1A adrenoceptors (clone 13)
# Assay type: cell-based
# Settings: for EC50: CHO-K1 cells expressing alpha 1A adrenoceptor (clone 13), agonist, intracellular calcium, FLIPR, read-out: CHO-1A-13 pEC50 (converted); for CHO-1A-13 IA: intrinsic activity: maximum response relative to norepinephrine bitartrate (full agonist), CHO-K1 alpha 1A clone 13
# Experimental: The activity of potential α1A/L activity in vitro was determined by evaluating the potency and relative intrinsic activity (relative to norepinephrine or phenylephrine) of standard and novel compounds using fluorescent dye determination of intracellular calcium concentrations.
# This example illustrates a functional assay which can be used to determine α1A/L agonist activity of Compounds of Formula I.
# The activity of compounds of this invention in vitro was examined using fluorescent dye determination of intracellular calcium concentrations.
# Chinese hamster ovary cells CHO-K1 expressing the alpha 1A adrenoceptors (clone 13) are washed 4 times (approx. 300 μL/well) with fluorometric imaging plate reader (FLIPR) buffer (Hank's buffered saline solution (HBSS), 2 mM CaCl2, 10 mM HEPES, 2.5 mM probenecid, 100 μM ascorbic acid), with a final volume of 150 μL/well. Cells are loaded with 50 μL/well of 8 μM Fluo-3 AM (Molecular Probes, Eugene, Oreg.), for a final concentration of 2 μM Fluo-3 AM. Cells are then incubated for 60 min at 37° C. Following dye loading, cells are washed 4 times (approx. 300 μL/well) with FLIPR buffer with a final volume of 150 μL/well.
# Test compound, control compound and reference compound are run in quadruplicate, 8-point curves on each plate with a final assay concentration range of 10^−4 M to 10^−11 M for each compound. All compounds are dissolved in DMSO at 10 mM, and serially diluted in FLIPR buffer.
# The assay plate is placed in the FLIPR incubation chamber and a baseline fluorescence measurement (excitation @ 488 nm and emission @ 510-570 nm) is obtained (15 sec interval). An experimental run is then commenced. The reaction is started with the addition of 50 μL/well (at 4× final concentration) of test, control, or reference compound solution from the agonist plate to the assay plate to all 96 wells simultaneously. Fluorescence is measured for 120 sec at 1 sec intervals. Then, a second addition of 5 μM ionomycin (50 μL/well from 5× concentration ionomycin plate) is added to the assay plate. Fluorescence is measured for 30 sec at 1 sec intervals. All experiments are conducted at room temperature.
# For each assay plate, responses (increase in peak fluorescence) in each well following addition of agonist (test, control and reference) are determined. These responses may be expressed as raw CFU (Corrected Fluorescence Units), as a % maximum ionomycin response or other unit as determined by the investigator.
# For test compound, control compound (Norepinephrine (NE) bitartrate), and reference compound, the concentration producing a 50% increase in control response (EC50) is determined using iterative curve-fitting methods. Excel spreadsheet or Kaleidagraph software are used to fit data to the general logistic function (E=B+Emax·A^nH/A^nH+EC50^nH), where B is the corrected baseline fluorescence units (defined as zero), A is the concentration of agonist added and nH is the Hill slope (constrained to unity). EC50 values and maxima (Emax) for each curve can be estimated objectively using this software.
# In addition, the intrinsic activity (a) is determined. Intrinsic activity is defined as the maximum response to test agonist divided by the maximum response to a full agonist acting through the same receptor. For these experiments, the full agonist is defined as Norepinephrine (NE) bitartrate (control).
# As used herein an agonist is a compound that elicits a maximal response greater of that of norepinephrine with a pEC50>5.5.
Compound,EC50,CHO-1A-13 IA
"COc1cc(NS(C)(=O)=O)c(OC)cc1CC1=NCCN1 [Compound 22, N-[4-(4,5-Dihydro-1H-imidazol-2-ylmethyl)-2,5-dimethoxy-phenyl]-methanesulfonamide]",0.692 µM,0.27
"COc1cc(CC2=NCCN2)c(Cl)cc1NS(C)(=O)=O [Compound 25, N-[5-Chloro-4-(4,5-dihydro-1H-imidazol-2-ylmethyl)-2-methoxy-phenyl]-methanesulfonamide]",0.0759 µM,0.81
"COc1cc(CC2=NCCN2)ccc1NS(C)(=O)=O [Compound 2, N-[4-(4,5-Dihydro-1H-imidazol-2-ylmethyl)-2-methoxy-phenyl]-methanesulfonamide]",0.17 µM,0.92

# Next, values leading:
EC50,CHO-1A-13 IA,Compound
0.661 µM,0.16,"CCS(=O)(=O)Nc1ccc(CC2=NCCN2)cc1Cl [Compound 13, Ethanesulfonic acid [2-chloro-4-(4,5-dihydro-1H-imidazol-2-ylmethyl)-phenyl]-amide]"
0.302 µM,0.65,"CS(=O)(=O)Nc1ccc(CC2=NCCN2)c2ccoc12 [Compound 8, N-[4-(4,5-Dihydro-1H-imidazol-2-ylmethyl)-benzofuran-7-yl]-methanesulfonamide]"
0.347 µM,0.43,"COc1cc(NS(C)(=O)=O)ccc1CC1=NCCN1 [Compound 6, N-[4-(4,5-Dihydro-1H-imidazol-2-ylmethyl)-3-methoxy-phenyl]-methanesulfonamide]"
